The text below walks through data of PMC10067855, “Sialidases and fucosidases of Akkermansia muciniphila are crucial for growth on mucin and nutrient sharing with mucus-associated gut bacteria” (Nature Communications, 2023).

In test [1] the target is T1, AmGH29B (Akkermansia muciniphila, UniProt B2ULU6).
T1 construct: gene Amuc_0146; mature peptide lacking the signal peptide
T1 sequence (B2ULU6 27-711): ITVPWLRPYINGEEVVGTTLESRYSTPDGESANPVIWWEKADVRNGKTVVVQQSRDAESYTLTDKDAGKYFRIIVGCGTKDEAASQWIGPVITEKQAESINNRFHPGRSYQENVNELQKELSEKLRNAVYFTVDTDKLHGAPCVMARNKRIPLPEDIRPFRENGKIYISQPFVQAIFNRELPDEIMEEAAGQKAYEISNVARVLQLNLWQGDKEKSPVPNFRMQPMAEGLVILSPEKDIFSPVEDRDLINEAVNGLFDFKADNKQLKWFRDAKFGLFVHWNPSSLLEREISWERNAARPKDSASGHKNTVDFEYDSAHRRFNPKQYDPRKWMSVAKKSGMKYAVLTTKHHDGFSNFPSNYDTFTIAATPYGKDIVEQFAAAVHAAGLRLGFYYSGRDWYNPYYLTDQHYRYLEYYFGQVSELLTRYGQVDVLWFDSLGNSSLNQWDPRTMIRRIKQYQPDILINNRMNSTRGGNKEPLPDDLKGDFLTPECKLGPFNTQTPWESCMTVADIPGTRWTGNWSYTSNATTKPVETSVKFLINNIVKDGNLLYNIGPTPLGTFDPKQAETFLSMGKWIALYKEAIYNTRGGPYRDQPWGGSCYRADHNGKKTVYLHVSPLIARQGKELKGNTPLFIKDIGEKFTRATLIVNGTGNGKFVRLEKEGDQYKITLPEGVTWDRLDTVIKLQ
The test can be described thus: inhibition of pNPFuc hydrolysis, A405. It is filed as biochemical.

Test [2] has as its target T2, AmGH95A (Akkermansia muciniphila, UniProt B2UM81).
T2 construct: gene Amuc_0186; mature peptide lacking the signal peptide
T2 sequence (B2UM81 25-788): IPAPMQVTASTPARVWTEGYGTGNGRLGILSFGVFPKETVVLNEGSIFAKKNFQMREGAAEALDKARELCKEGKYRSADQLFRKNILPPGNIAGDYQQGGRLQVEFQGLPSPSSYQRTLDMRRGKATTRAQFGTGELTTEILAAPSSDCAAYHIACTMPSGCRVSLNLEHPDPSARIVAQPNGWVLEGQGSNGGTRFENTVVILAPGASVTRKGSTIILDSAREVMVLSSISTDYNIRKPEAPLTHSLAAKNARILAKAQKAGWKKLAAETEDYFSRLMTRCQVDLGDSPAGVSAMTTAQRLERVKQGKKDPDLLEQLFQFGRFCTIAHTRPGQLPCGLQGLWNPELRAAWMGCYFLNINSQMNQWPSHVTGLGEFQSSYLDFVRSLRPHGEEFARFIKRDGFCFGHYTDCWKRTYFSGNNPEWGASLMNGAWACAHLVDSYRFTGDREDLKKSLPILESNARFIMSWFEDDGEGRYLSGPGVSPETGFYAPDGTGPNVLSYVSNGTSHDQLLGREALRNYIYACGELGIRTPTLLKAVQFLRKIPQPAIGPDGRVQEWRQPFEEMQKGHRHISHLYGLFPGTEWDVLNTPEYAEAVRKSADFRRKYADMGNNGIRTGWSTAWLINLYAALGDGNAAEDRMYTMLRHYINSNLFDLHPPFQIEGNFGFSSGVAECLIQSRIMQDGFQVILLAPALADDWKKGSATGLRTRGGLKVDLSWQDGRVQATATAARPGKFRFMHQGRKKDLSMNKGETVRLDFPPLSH
Put plainly: inhibition of pNPFuc hydrolysis, A405. It is filed as biochemical.

pIC50: −log10 of the molar value. Some results are limits rather than exact numbers.

In the case of `C[C@@H]1NC[C@@H](O)[C@H](O)[C@@H]1O` [DFJ, 1-Deoxyfuconojirimycin], the pIC50 in test [1] and in test [2] was above 4.27 each time.
